Data from ChEMBL document CHEMBL1157539, “Thousands of chemical starting points for antimalarial lead identification” (Nature, 2010).

test system: Plasmodium falciparum; experiment: GSK_TCMDC: Inhibition of Plasmodium falciparum 3D7 in whole erythrocytes, using parasite LDH activity as an index of growth.; format: functional, organism-based; details: not given

CCc1nc(N)nc(N)c1-c1ccc(Cl)cc1 [PYRIMETHAMINE] was tested, and the XC50 was 31.8 nM.

same assay, conditions: Plasmodium falciparum, 3D7

In order of falling XC50:
1. COc1cc(NC(=O)c2cc([N+](=O)[O-])ccc2NC(=O)CNC2CCCCC2C)cc(OC)c1 (configuration not stated)  1730 nM
2. CC1CCN(Cc2cccc(C(=O)NCc3ccc(F)c(-c4cccc(CN5CCN[C@@H](C)C5)c4)c3)c2)CC1  1460 nM
3. COc1ccc(CNCCCCCCNCCc2ccc(Cl)cc2)cc1OC  1390 nM
4. Cc1cc(N2CCC(NS(=O)(=O)c3ccccc3)CC2)nc(Nc2cccc(C#N)c2)n1  1350 nM
5. O=C(Nc1ccc(-c2nc3ccccc3[nH]2)cc1)C1CCCN(C2CCC2)C1 (configuration not stated)  1350 nM
6. CS(=O)(=O)N(c1ccc(F)cc1)c1cc(C(=O)N[C@@H](Cc2ccccc2)[C@H](O)CNCc2cccc(C(F)(F)F)c2)cc(N2CCCC2=O)c1  1350 nM
7. CCN(CC)CCCN(Cc1ccc(-c2ccc(C(F)(F)F)cc2)cc1)C(=O)Cn1c(SCc2cccc(F)c2F)cc(=O)c2ccccc21  1320 nM
8. O=C(Nc1ccc(I)cc1)N1CCc2sccc2C1CN1CCCCC1 (configuration not stated)  1200 nM
9. CCCCCc1ccc(NC(=O)Nc2ccc(Cn3ncc(N4CCCNCC4)c(Cl)c3=O)cc2)cc1  1140 nM
10. N#Cc1ccc2c(c1)CCN(CCC1CCC(NC(=O)Nc3ccncc3)CC1)C2 (configuration not stated)  1130 nM
11. CCc1ccc(NC(=O)c2ccc(CN3CCCN(Cc4cccc(C)c4)CC3)cc2)cc1  1130 nM
12. N#Cc1ccc(N/C(=N\c2cccc(Cl)c2Cl)NCc2ccc(Cl)cc2Cl)c(O)c1  1120 nM
13. O=C(Nc1cccc(N2CCC(NCCCn3ccnc3)CC2)c1)c1cccc(C(F)(F)F)c1  1110 nM
14. CC(C)CCN1CCC(Oc2ccc(NC(=O)c3cccs3)cc2Cl)C1 (configuration not stated)  1100 nM
15. C[C@@H](CNc1ccnc(Nc2ccc3[nH]c(=O)[nH]c3c2)n1)c1ccccc1  1100 nM
16. Cc1ccc2ncc(Cl)c(CCN3CCC(NCc4ccc5c(n4)NC(=O)CS5)CC3)c2n1  1100 nM
17. CC(C)(C)c1ccc(C(=O)Nc2cccc(Nc3c(C(=O)NCc4cccc(C(F)(F)F)c4)cnc4c(O)cccc34)c2)cc1  1090 nM
18. NC1=NC(c2ccccc2)(c2ccccn2)C(=O)N1CCCc1ccccc1 (configuration not stated)  1040 nM
19. Cc1noc(-c2ccc3c(c2)CCN(CCC2CCC(NC(=O)/C=C/c4ccc(F)cc4)CC2)CC3)n1 (configuration not stated)  1030 nM
20. CCOCc1cnc(C)nc1CNC(=O)c1c(C)[nH]c2ccc(C)cc12  1010 nM
21. Cc1cccc2nc(-c3ccc(-c4ccc(CNCCCNS(C)(=O)=O)cc4)s3)[nH]c12  999 nM
22. O=C(NCC1CCN(Cc2cccc(F)c2)C1)c1cc(-c2cccc(C(F)(F)F)c2)cs1 (configuration not stated)  992 nM
23. COc1ccc(C2C(C(=O)Nc3cc(C)ccc3OC)c3ccccc3C(=O)N2C)cc1 (configuration not stated)  982 nM
24. CC(=O)Nc1ccc(OCCCCN(Cc2ccccc2C(F)(F)F)c2ccc(C#N)c(C(F)(F)F)c2)c(Cl)c1  981 nM
25. CC(=O)N(C)C1CCN(Cc2ccc(-c3ccc(-c4nc5cc(F)ccc5[nH]4)s3)cc2)C1 (configuration not stated)  971 nM
26. CC(Cc1ccc(OCCOc2ccccc2)cc1)NCC(O)c1cccc(C(F)(F)F)c1 (configuration not stated)  968 nM
27. CC(C)CC(=O)N1CCNC[C@@H]1C(=O)NCc1ccc(Cl)c(Cl)c1  950 nM
28. O=C(/C=C/c1ccc(-c2nc3cc(F)c(F)cc3[nH]2)cc1)NCc1ccc(Cl)c(Cl)c1  938 nM
29. CC(C)(Oc1ccc(Cl)cc1)C(=O)NCCC1CCN(CCCCCNC(=O)/C=C/c2ccc(Cl)c(Cl)c2)CC1  936 nM
30. Cc1cccc2nc(-c3ccc(-c4cccc(CN5CCC(CO)CC5)c4)s3)[nH]c12  935 nM
31. CNC(=O)c1cc(NCCCNCc2ccc(Cl)c(C(F)(F)F)c2)nc2ccccc12  931 nM
32. Fc1ccccc1COc1ccc(Nc2ncnc3ccc(I)cc23)cc1Cl  930 nM
33. COc1cccc(CN2CCCC(OC(c3ccccc3)c3ccccc3)C2)c1O (configuration not stated)  930 nM
34. COc1ccc(C=NNc2nc3ccccc3[nH]2)cc1O  915 nM
35. COC(=O)c1ccc(CC(C)NCC(O)c2cccc(SC(F)(F)F)c2)cc1 (configuration not stated)  887 nM
36. CN1CCN(c2ccnc3ccc(NC(=O)Nc4ccc(Cl)c(Cl)c4)cc23)CC1  876 nM
37. Cc1nn(-c2ccccc2)c2nc(-c3ccccc3)cc(C(=O)N3CCOCC3)c12  872 nM
38. CCCC(C)Nc1nc(C)cc(N[C@@H](CC(C)C)C(=O)Nc2ccc(OC)cc2)n1 (some centres not stated)  866 nM
39. N/C(=N\c1cccc(Cc2ccccc2)n1)NCc1ccccc1  863 nM
40. Nc1ncc(-c2ccsc2)c2ccc(-c3cc(NCc4ccccc4)ncn3)cc12  861 nM
41. COc1cc(NC(=O)c2c(-c3c(F)cccc3Cl)noc2C)c(OC)cc1Cl  861 nM
42. Oc1ccc(CN2CCN(CCOC(c3ccccc3)c3ccc(Cl)cc3)CC2)cc1Cl (configuration not stated)  858 nM
43. COc1ccc2c(c1)[nH]c1c(/C=C/c3ccc([N+](=O)[O-])cc3)nccc12  858 nM
44. OC(CN1CCN(C2CCCCC2)CC1)Cn1c2ccccc2c2cc(Br)ccc21 (configuration not stated)  857 nM
45. CC(C)(C)OC(=O)N1CCN(c2ccccc2NC(=O)c2cccc(C(F)(F)F)c2Oc2ccc(F)cc2)CC1  857 nM
46. CCN(CC)CCN(Cc1ccc(-c2ccc(C(F)(F)F)cc2)cc1)C(=O)Cn1c(CCc2cc(F)ccc2F)nc(=O)c2ccccc21  828 nM
47. COc1ccc(-c2ccnc(-c3cccc(-c4ccccn4)n3)c2)cc1  824 nM
48. O=C(NCCCN1CCCCC1)c1cccc(Nc2nccc(Nc3ccc(Oc4ccccc4)cc3)n2)c1  821 nM
49. CCOC(=O)Nc1cc(-c2csc(N=C(N)N)n2)cc([N+](=O)[O-])c1  816 nM
50. COc1cc(CN2CCC(NC(=O)[C@H](Cc3ccccc3)NC(=O)Nc3ccc(Oc4ccccc4)cc3)C2)ccc1O (some centres not stated)  810 nM
51. COc1ccc(-c2cccc(NC(=O)c3ccc(C#N)cc3)c2)cc1CNC(C)C  808 nM
52. CCOc1ccc2nc3cc(NC(=O)c4ccco4)ccc3c(N)c2c1  802 nM
53. Cc1cc(Nc2c(C(N)=O)cnc3cc(-c4ccoc4)ccc23)ccc1N1CCN(C)CC1  797 nM
54. Cn1nc(-c2ccccc2F)c2cc(C(=O)NC3CCN(Cc4ccccc4)CC3)sc21  789 nM
55. Cc1ccc(NS(=O)(=O)c2ccc(C(C)N3CCC(N4CCCCC4)CC3)cc2)cc1C (configuration not stated)  763 nM
56. CC(=O)N[C@H](C(=O)Nc1cccc(-c2ccc(-c3nc4cccc(C)c4[nH]3)s2)c1)C(C)C  760 nM
57. Cc1nc(-c2ccncc2)sc1C(=O)Nc1ccc(Cl)cc1C(=O)Nc1ccc(Cl)cc1  759 nM
58. O=C(COc1cccc([N+](=O)[O-])c1)Nc1ccc(-c2nc3ccccc3[nH]2)cc1  754 nM
59. COc1ccc(-c2cncc3ccc(C(=O)NCCCn4ccnc4)nc23)cc1  748 nM
60. Fc1cc(Cl)ccc1Nc1ccnc(Nc2ccc3cn[nH]c3c2)n1  737 nM
61. COc1ccc2c(=NN=Cc3cccc(Cl)c3)cc(C)[nH]c2c1  732 nM
62. COc1cc(C=NN=c2cc(C)[nH]c3ccccc23)cc(OC)c1OC  730 nM
63. CN1CCC(N(C)c2nccc(N3CCN(Cc4cncn4Cc4ccccc4)CC3)n2)CC1  704 nM
64. Cc1onc(-c2ccccc2)c1C(=O)Nc1nc(-c2ccccn2)nc2ccsc12  685 nM
65. CC(CN1CCN(CC(c2ccc(F)cc2)N2CCN(C)CC2)CC1)C(=O)c1ccc(O)cc1 (configuration not stated)  672 nM
66. CC(=O)N(Cc1cccc(-c2cccc(CNCCc3ccccc3)c2)c1)C1CCN(Cc2ccccc2)CC1  670 nM
67. O=C(Nc1ccc(F)c(C(F)(F)F)c1)NC1CCN(CCCCCNC(=O)C2CC2c2ccc(Cl)c(Cl)c2)CC1 (configuration not stated)  663 nM
68. CCOC(=O)c1c(CSc2ccccc2)oc2cc(CN(C)C)c(O)c(Cl)c12  657 nM
69. CCCCc1ccc2[nH]cc(C3=CCN(C)CC3)c2c1Br  627 nM
70. Nc1cccc(CNCc2cccc(-c3ccc(-c4nc5ccccc5[nH]4)s3)c2)c1  604 nM
71. Cn1nc(-c2ccc(NC(=O)Nc3cc(C(F)(F)F)ccc3F)c(F)c2)c2cnc(NCCCN3CCOCC3)nc21  604 nM
72. COc1ccc(Cl)cc1NC(=O)C(C)Nc1ccc(-c2ccccc2)cc1 (configuration not stated)  556 nM
73. COc1cc(C(=O)NC2CCN(Cc3ccccc3)CC2)ccc1-c1nc2cc(Cl)c(Cl)cc2[nH]1  521 nM
74. CC(=O)Nc1ccc2[nH]cc(C3CCN(CCC4CCN(C(=O)/C=C/c5ccc(Cl)c(Cl)c5)CC4)CC3)c2n1  518 nM
75. Cc1cccc2nc(-c3ccc(-c4ccc(CNCc5ccccc5)cc4)cc3)[nH]c12  508 nM
76. COc1ccc(NC(=S)NC(NC(=O)CF)C(Cl)(Cl)Cl)cc1[N+](=O)[O-] (configuration not stated)  479 nM
77. CN(C)CCNCc1cccc(-c2ccc3c(Nc4ccc(Oc5ccccc5)cc4)ccnc3c2)c1  441 nM
78. CCC1(CC)CN(c2ccccc2)c2ccc(O)cc2S(=O)(=O)C1CC(C)C (configuration not stated)  402 nM
79. CCN(CCCN1CCCCC1)c1cc(C)nc(Nc2ccc(Cl)cc2)n1  385 nM
80. O=C(Nc1cccc(-c2nn3ccccc3c2-c2ccnc(Nc3ccc(C(=O)N4CCOCC4)cc3)n2)c1)c1c(F)cccc1F  383 nM
81. O=C(/C=C/c1ccc(Cl)c(Cl)c1)NCC1CCC(CN2CCC(c3c[nH]c4ccccc34)CC2)CC1 (configuration not stated)  356 nM
82. CN(C)CCOc1ccc2nc(-c3cccc(OCc4ccccc4)c3)[nH]c2c1C#N  256 nM
83. CC(C)Sc1nc2c(c(=O)n1Cc1ccco1)C1(CCCCC1)Cc1ccccc1-2  251 nM
84. CNc1ccc(CNCc2ccc(-c3ccc(-c4nc5cc(F)ccc5[nH]4)cc3)cc2)cc1  210 nM
85. O=c1c2ccc(Sc3ccccn3)cc2n(-c2ccccc2)c2cc(Sc3ccccn3)ccc12  203 nM
86. CCN(CC)CCCN(CCCN(CC)CC)c1cc(C)nc(Nc2ccc(Br)cc2)n1  200 nM
87. COc1ccc(-c2cc(-c3ccc(S(C)(=O)=O)cc3)cnc2N)cn1  187 nM
88. Cc1noc(C)c1-c1cccc(CNCc2cccc(-c3ccc(-c4nc5cc(C(F)(F)F)ccc5[nH]4)s3)c2)c1  166 nM
89. c1cc(-c2ccc(CNCc3ccc(-c4csnn4)cc3)cc2)cc(-c2nc3ccccc3[nH]2)c1  158 nM
90. CCCc1ccc(C(=O)N2C(c3nccs3)C(C(N)=O)CC2(CC(C)C)C(=O)O)cc1 (configuration not stated)  156 nM
91. c1ccc2[nH]c(-c3ccc(-c4ccc(CN5CCC(N6CCCCC6)CC5)cc4)s3)nc2c1  153 nM
92. CC[C@H]1CN2CC[C@@H]1C[C@H]2[C@H](O)c1cc(N2CCOCC2)nc2ccc(OC)cc12  118 nM
93. CCc1nc(N)nc(N)c1-c1ccc(Cl)cc1 [PYRIMETHAMINE]  59.5 nM
94. Oc1ccc2c(CNC3CCCCC3)c(O)ccc2c1CNC1CCCCC1  43.5 nM
95. CCc1cc2c3c(N)nc(N)nc3ccc2n1C(C)(C)C  12.7 nM
96. CCCc1cc(OCCCOc2ccccc2)ccc1OCCCON1C(=N)N=C(N)NC1(C)C  3.2 nM
